Where “and” joins values, the source holds several entries; their conditions need not be identical. Equal entries are not always repeated. Entries after “also recorded” stand apart in the source; their conditions may differ. Values belong to the compound of their own block, whether it stands above or below them.
Target: T1, recombinant human LAT1 (Homo sapiens, UniProt Q01650)
T1 construct: made in house; host or cells: E. coli
Assay: Inhibition of LAT1 mediated [3H]-His transport in proteoliposomes reconstituted with recombinant purified human LAT1
Type: biochemical
Design: Dose-response analysis, Mean / Dose-response analysis, single experiments: unit not given here
Settings: for % Residual Activity: 100 µM concentration, n = 3, Table S6; for inhibition at 100 µM: 100 µM compound; for LAT1 inhibition, activity in words: 100 μM compound, [3H]-His uptake in proteoliposomes; for Dose-response analysis, single experiments: Exp. 1, Exp. 2, Exp. 3 in this order; for Dose-response analysis, Mean: mean of Exp. 1-3
Method: All 30 compounds were evaluated for their potency to inhibit LAT1 mediated histidine transport in proteoliposomes reconstituted with recombinant purified human LAT1 (see Methods). […]
Human LAT1 was over-expressed in E. coli and was purified as previously described. In brief, solubilized cell lysate was centrifuged (12,000× g, 10 min, 4 °C); supernatant was applied on a His-Trap HP column (5 mL Ni Sepharose) connected to ÄKTA start system. The column was equilibrated with 10 mL buffer (20 mM Tris HCl pH 8.0, 10% glycerol, 200 mM NaCl, 0.1% sarkosyl) prior to supernatant application. The column was washed with 10 mL buffer (20 mM Tris HCl pH 8.0, 10% glycerol, 200 mM NaCl, 0.05% DDM, and 2 mM DTE) and the protein was eluted with the same buffer plus 400 mM imidazole. Purified protein was desalted, in order to remove imidazole, using a PD-10 column in a buffer containing 20 mM Tris HCl pH 8.0, 10% glycerol, 0.05% DDM and 10 mM DTE.
The purified human LAT1 was reconstituted by detergent removal approach using the batch-wise method, as previously described. In brief, the initial mixture contained: 4 μg of purified protein, 100 μL of 10% C12E8, 100 μL of 10% egg yolk phospholipids (w/v) in the form of liposomes that were prepared as previously described, 20 mM Tris HCl pH 7.5, and 10 mM L-His in a final volume of 700 μL. This mixture was incubated with 0.5 g of Amberlite XAD-4 for 90 min at 23 °C, 1200 rpm to retain detergent.
To perform transport assays, the external substrate was removed by gel filtration chromatography: 600 μL of proteoliposomes were passed through a Sephadex G-75 column (0.7 cm diameter × 15 cm height) pre-equilibrated with 20 mM Tris HCl pH 7.5 and a concentration of sucrose to balance internal osmolarity. Transport was started adding 5 μM [^3H]-His to proteoliposomes and stopped after 30 min according to the stop inhibitor method, as previously described. In brief, in controls 1.5 µM HgCl2 was added at time zero and radioactivity was subtracted to samples for calculating net transport. After stopping the transport reaction, 100 μL of proteoliposomes was subjected to gel filtration chromatography using a Sephadex G-75 column (0.6 cm diameter × 8 cm height), to separate the external from the internal radioactivity. Proteoliposomes were eluted with 1 mL 50 mM NaCl in 4 mL scintillation mixture and counted. […] Protein concentration was estimated by Chemidoc imaging system1 [104] to calculate the human LAT1 specific activity.

T1 sequence (Q01650 whole entry): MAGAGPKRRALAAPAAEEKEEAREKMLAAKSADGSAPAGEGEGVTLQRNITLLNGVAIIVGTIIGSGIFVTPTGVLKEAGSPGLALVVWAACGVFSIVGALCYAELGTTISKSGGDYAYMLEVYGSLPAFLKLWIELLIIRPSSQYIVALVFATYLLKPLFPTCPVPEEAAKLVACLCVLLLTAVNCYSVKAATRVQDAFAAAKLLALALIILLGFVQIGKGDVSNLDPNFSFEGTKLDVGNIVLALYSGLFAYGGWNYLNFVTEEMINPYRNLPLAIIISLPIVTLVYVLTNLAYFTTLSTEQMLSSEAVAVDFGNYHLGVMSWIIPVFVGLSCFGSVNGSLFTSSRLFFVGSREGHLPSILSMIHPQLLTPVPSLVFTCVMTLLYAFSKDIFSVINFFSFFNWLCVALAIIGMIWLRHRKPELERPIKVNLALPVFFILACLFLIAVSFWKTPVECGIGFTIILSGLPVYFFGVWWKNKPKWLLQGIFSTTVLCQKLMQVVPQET

SMILES: CCn1cnnc1C(C)NC(=O)c1ccc2[nH]c(=O)c(=O)[nH]c2c1 (centres unmarked) [Compound 16]
- % Residual Activity: 95.1%

SMILES: CCCCN(Cc1ccsc1)C(=O)c1ccc(NS(=O)(=O)CC)cc1 [Compound 17]
- % Residual Activity: 94.75%

SMILES: N[C@@H](Cc1cccc(C(F)(F)F)c1)C(=O)O [Compound 41]
- inhibition at 100 µM: 80 to 90%
- % Residual Activity: 15.21%

SMILES: COc1ccc(CSCC(N)C(=O)O)cc1Br (centres unmarked) [Compound 28]
- IC50 (5 μM [3H]-His, proteoliposomes containing 10 mM His, mean ± S.D., three experiments): 33.2 ± 4.5 µM
- inhibition at 100 µM: 80 to 100%
- LAT1 inhibition, activity in words: highly active
- % Residual Activity: 12.93%
- Dose-response analysis, single experiments (0.1 [] M compound): 98.56 and 118.69 and 87.20
- Dose-response analysis, Mean (0.1 [] M compound): 101.48
- Dose-response analysis, single experiments (0.2 [] M compound): 109.35 and 122.43 and 93.48
- Dose-response analysis, Mean (0.2 [] M compound): 108.42
- Dose-response analysis, single experiments (0.5 [] M compound): 112.59 and 110.90 and 85.27
- Dose-response analysis, Mean (0.5 [] M compound): 102.92
- Dose-response analysis, single experiments (1 [] M compound): 120.86 and 119.63 and 97.34
- Dose-response analysis, Mean (1 [] M compound): 112.61
- Dose-response analysis, single experiments (2.5 [] M compound): 84.89 and 85.98 and 94.20
- Dose-response analysis, Mean (2.5 [] M compound): 88.36
- Dose-response analysis, single experiments (5 [] M compound): 79.14 and 103.43 and 83.33
- Dose-response analysis, Mean (5 [] M compound): 88.63
- Dose-response analysis, single experiments (10 [] M compound): 96.40 and 89.72 and 73.19
- Dose-response analysis, Mean (10 [] M compound): 86.44
- Dose-response analysis, single experiments (25 [] M compound): 57.91 and 52.02 and 47.58
- Dose-response analysis, Mean (25 [] M compound): 52.51
- Dose-response analysis, Mean (50 [] M compound): 38.86
- Dose-response analysis, Mean (100 [] M compound): 24.50

SMILES: N[C@@H](Cc1ccc(OCc2c(Cl)cccc2Cl)cc1)C(=O)O [Compound 38]
- inhibition at 100 µM: 80 to 90%
- % Residual Activity: 13.17%

SMILES: CN(Cc1cc(Br)cc(Br)c1N)C1CCCCC1 [Compound 29]
- % Residual Activity: 98.42%

SMILES: Cc1sc2ccccc2c1CN1CCCn2nc(C(O)CO)cc2C1 (centres unmarked) [Compound 21]
- % Residual Activity: 85.14%

SMILES: Cc1cc(OC(C)(C)C(=O)NCc2n[nH]c(=O)[nH]2)cc(C)c1Cl [Compound 20]
- % Residual Activity: 90.07%

SMILES: CN1CCCC(n2nc(Cc3ccc(Cl)cc3)c3ccccc3c2=O)CC1 (centres unmarked) [Compound 30]
- % Residual Activity: 94.08%

SMILES: Cc1nnc(-c2ccccc2-c2ccc(CNS(C)(=O)=O)cc2)o1 [Compound 14]
- % Residual Activity: 95.87%

SMILES: N[C@@H](CSC(c1ccccc1)(c1ccccc1)c1ccccc1)C(=O)O [Compound 39]
- inhibition at 100 µM: 80 to 90%
- % Residual Activity: 11.76%

SMILES: CCOc1ccccc1CN(Cc1cc(O)c(OC)cn1)C1CC1 [Compound 19]
- % Residual Activity: 93.06%

SMILES: O=C(c1ccc2[nH]c(CO)nc2c1)N(Cc1ccco1)Cc1cccs1 [Compound 22]
- % Residual Activity: 93.36%

SMILES: CC(C)COc1ccc(C(N)CC(=O)O)cc1 (centres unmarked) [Compound 27]
- LAT1 inhibition, activity in words: slightly active
- % Residual Activity: 67.96%

The next lines start with results.

- % Residual Activity: 91.83%
SMILES: O=C(O)CNC(=O)c1nc(Cl)c2ccccc2c1O [Compound 31]

- % Residual Activity: 96.22%
SMILES: CN(Cc1ccon1)C(C(=O)O)c1ccc(-n2cccn2)cc1 (centres unmarked) [Compound 23]

- LAT1 inhibition, activity in words: slightly active
- % Residual Activity: 65.31%
SMILES: N[C@@H](Cc1ccc2ccccc2n1)C(=O)O [Compound 37]

- % Residual Activity: 53.11%
SMILES: NC1(C(=O)O)CCCC1Cc1ccc(Cl)cc1 (centres unmarked) [Compound 32]
- LAT1 inhibition, activity in words: moderately active; also recorded: modest affinity

- % Residual Activity: 89.37%
SMILES: Cc1cccnc1CN(C)C(C(=O)O)c1ccc(-n2cccn2)cc1 (centres unmarked) [Compound 26]

- inhibition at 100 µM: 80 to 90%
- LAT1 inhibition, activity in words: highly active
- % Residual Activity: 17.86%
SMILES: NC(CSCc1cccc2ccccc12)C(=O)O (centres unmarked) [Compound 33]

- % Residual Activity: 92.21%
SMILES: C=CCN(Cc1cccc(OCC(N)=O)c1)Cc1ccccc1C [Compound 15]

- % Residual Activity: 94.12%
SMILES: O=C(O)[C@@H]1C[C@H](n2cc(-c3ccccn3)nn2)CN1 [Compound 25]

- inhibition at 100 µM: 80 to 90%
- % Residual Activity: 11.34%
SMILES: N[C@@H](Cc1cn(Cc2ccccc2)cn1)C(=O)O [Compound 40]

Reference: PMC6337383, “Discovery of Potent Inhibitors for the Large Neutral Amino Acid Transporter 1 (LAT1) by Structure-Based Methods” (International Journal of Molecular Sciences, 2018)
